The subject of one test is gastric mucosa. The experiment in a line: Preventing the gastric ulcer induced by ethanol-hydrochloric acid (gastric cytoprotection). Type of test: in vivo, SD-strain rats. The conditions noted are these: Rattus norvegicus, po, rats; 30 minutes before 0.2N hydrochloric acid-50% aqueous ethanol; read-out: ED50 effective for 50% inhibition to the formation of necrotic lesions. The procedure: Thus, according to the method of Robert et al (see "Gastroenterology" 77, 433-443 (1979)), SD-strain rats (male, weighing 200 to 220 g, 8 rats in each group) were deprived of food for 24 hours and deprived of water for 19 hours. The rats were then administered orally with a suspension of the test compound in aqueous 0.5% carboxymethylcellulose solution at a dosage of 6, 10 or 20 mg/kg of the test compound. […] One hour after the administration of the ethanolic hydrochloric acid, the rats were killed. Their stomacks were dissected out, and the lower part of the esophagus was nipped with a clip. Aqueous 1% formalin solution (12.0 ml) was poured into the stomacks from duodenum and then the duodenal part was nipped by a clip. The whole stomacks were immersed in aqueous 1% formalin solution for about 10 minutes for the fixation, the pyloric stomacks were opened along the greater curvature and then rinsed with water. The gastric mucosa was examined and the necrotic lesions or errosions as formed in the glandular stomack and in the pylorus were examined under anatomic microscope to determine the length (in mm) of the lesions. From the test results obtained by the above procedure, the ED50 value of the tested compound effective for 50% inhibition to the formation of necrotic lesions was evaluated. Omeprazole as the comparative drug was tested in the same manner as above.

A further test relates to rabbit gastric glands. As to the kind of experiment: Inhibitory effects on aminopyrine uptake into gastric glands. The class given is cell-based. The conditions noted are these: Oryctolagus cuniculus, 0.5 h, 37° C., 30 minutes, untreated control = 100%; for activity at 100 µM: 10^-4 M test compound; for activity at 10 µM: 10^-5 M test compound; for activity at 1 µM: 10^-6 M test compound. The text has this: The production of gastric acid in the gastric mucosa is known to be performed by the parietal cells which are one kind of the cells constituting the gastric glands. The extent of the gastric acid secretion by the parietal cells has been deduced to be proportional to the rate of aminopyrine uptake into the gastric glands. Accordingly, the investigation of aminopyrine uptake into the gastric glands has been generally used as the indirect method for measuring the gastric acid secretion. Therefore, suspension of the rabbit gastric glands was prepared according to the method of Berglindh et al (see "Acta Physiol. Scand." 97, 401-414 (1976)). […] After this incubation, the reaction mixture obtained was centrifuged so that the gastric glands were spun down and separated from the incubation mixture. The gastric glands so collected were liophylized and the dry weight of the glands was measured. […] The so determined value of the radio-activity was assumed as the concentration or level of the aminopyrine uptaken into the gastric glands. According to the report of Berglindh et al (see "Acta Physiol. […] The radio-activity of the supernatant of the incubation mixture was determined in the same manner as above by the liquid scintillation counter, and the so determined value of the radio-activity of the supernatant was assumed to be the concentration or level of the aminopyrine present in the extraglandular water with the assumption that the so determined concentration of the aminopyrine in the supernatant was a measure of showing the quantity of the aminopyrine remaining not uptaken into gastric glands. Rate of aminopyrine uptake into gastric glands was calculated according to the following equation: [formula] The above experiment was repeated without the test compound as the Control test (untreated with test compound), and the rate of aminopyrine uptake as determined for this control test (untreated) was assumed to be 100%. The value (% of Control) was taken as showing the inhibitory effects of the test compound on the acid secretion. As a comparative drug, omeprazole was tested in the same way as above.

A further test has as its target T1, H^+,K^+ -ATPase (Oryctolagus cuniculus, UniProt P27112).
T1 construct: The rabbit gastric glands were homogenized and the microsomal fractions were prepared; from tissue; host or cells: rabbit gastric glands, light membrane fraction between 30% and 40% sucrose
The experiment in a line: Inhibitory effects on the enzymatic activity of H^+,K^+ -ATPase. Type of test: biochemical, rabbit. The procedure:
The rabbit gastric glands were homogenized and the microsomal fractions were prepared by differential centrifugation of the resultant homogenate. The microsomal fractions were layered on a linear continuous sucrose gradient ranging from 20 to 55% (W/V) sucrose and centrifuged to obtain the light membrane fractions sedimenting between 30% sucrose and 40% sucrose. The light membrane fractions containing the H^+,K^+ -ATPase so obtained were used to estimate the inhibitory effects of the new compound of this invention or omeprazole on the enzymatic activity of H^+,K^+ -ATPase. Test compounds were pre-incubated with the reaction mixture containing the enzyme (20-50 μg as protein) for 30 minutes at 37° C. After this, the enzymatic activity of the reaction mixture was determined by incubating for 20 minutes at 37° C. with the following reactant mixture comprising 10 mM MgCl2, 10 mM ATP disodium salt and 400 mM Tris-HCl (pH 7.3) with or without 50 mM KCl.

Another test has as its system gastric acid secretion. The experiment in a line: Gastric acid antisecretory activity (tetragastrin-stimulated secretion). The class given is in vivo, Donryu-strain rats. To be noted: for ED50: Rattus norvegicus, iv, anaesthetized rats, tetragastrin 5 μg/kg, read-out: ED50 effective for 50% inhibition of the gastric acid secretion. The procedure:
The bilateral vagus nerves in the cervical region of the rats were surgically cut and cannulas were inserted into the pylorus and also into the esophagus, respectively, and tied in place according to the method of Ghosh and Schild (see "Brit. J. Pharmacol." 13, 54 (1958)). Aqueous 0.9% saline solution (pH 8.5) as warmed to 40° C. was passed through the […] cannula into the stomack at a rate of 1 ml/min. for the perfusion. The pH value of the effluent coming from the pyloral cannula was measured. At the stage when the pH value of said effluent became steady, 5 μg/kg of tetragastrin, a stimulant for the gastric acid secretion, was administered through a cannula which had been inserted into the cervical vein. After the administration of tetragastrin,the decreasing change of pH value in the effluent was measured at constant intervals of time. Subsequently, a solution of the test compound in methanol was intraveously administered to the rat, and 15 minutes later tetragastrin was again administered. From the test data of the pH measurements so obtained was evaluated the ED50 value of the tested compound effective for 50% inhibition of the gastric acid secretion.

[1] abbreviates: pre-incubated 30 minutes at 37° C., pH 7.3, with or without 50 mM KCl, read-out: IC50 value required for 50% inhibition of the enzymatic activity.

The record followed here is patent US4743609A, “Indole derivatives having gastric and antisecretory and cytoprotective properties, and pharmaceutical preparations containing same” (Banyu Pharmaceutical Co., Ltd., priority 1985, dated 1988).

Where two headings read alike, the source gives them in different places.

T1 sequence (P27112 whole entry): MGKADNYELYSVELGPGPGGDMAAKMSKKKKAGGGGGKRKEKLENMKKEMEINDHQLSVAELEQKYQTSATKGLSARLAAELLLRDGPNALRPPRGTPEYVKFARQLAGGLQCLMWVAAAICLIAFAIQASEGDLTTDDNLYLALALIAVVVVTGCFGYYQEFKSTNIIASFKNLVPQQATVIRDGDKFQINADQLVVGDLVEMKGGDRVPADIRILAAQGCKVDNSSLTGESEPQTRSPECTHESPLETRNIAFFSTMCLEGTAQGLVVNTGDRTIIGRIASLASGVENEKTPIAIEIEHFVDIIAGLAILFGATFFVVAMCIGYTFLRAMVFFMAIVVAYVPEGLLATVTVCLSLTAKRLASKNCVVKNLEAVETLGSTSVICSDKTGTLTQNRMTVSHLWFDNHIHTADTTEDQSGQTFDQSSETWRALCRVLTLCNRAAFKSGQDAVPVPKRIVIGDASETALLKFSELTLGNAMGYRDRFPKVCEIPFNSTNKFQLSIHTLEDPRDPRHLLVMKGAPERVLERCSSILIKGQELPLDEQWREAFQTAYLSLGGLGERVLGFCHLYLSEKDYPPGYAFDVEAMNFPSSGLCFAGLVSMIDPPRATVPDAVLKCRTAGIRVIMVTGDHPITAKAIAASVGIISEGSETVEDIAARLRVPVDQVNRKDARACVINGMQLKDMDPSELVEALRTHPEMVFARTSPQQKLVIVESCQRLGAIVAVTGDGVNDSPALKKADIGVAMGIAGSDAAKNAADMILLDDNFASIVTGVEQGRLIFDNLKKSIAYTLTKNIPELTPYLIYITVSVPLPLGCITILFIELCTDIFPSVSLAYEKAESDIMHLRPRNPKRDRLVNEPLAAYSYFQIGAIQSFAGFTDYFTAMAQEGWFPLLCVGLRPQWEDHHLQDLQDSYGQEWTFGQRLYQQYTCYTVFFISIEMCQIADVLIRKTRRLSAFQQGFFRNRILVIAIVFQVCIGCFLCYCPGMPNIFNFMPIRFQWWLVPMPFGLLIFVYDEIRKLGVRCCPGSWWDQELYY
T1 sequence (P18597 whole entry partner): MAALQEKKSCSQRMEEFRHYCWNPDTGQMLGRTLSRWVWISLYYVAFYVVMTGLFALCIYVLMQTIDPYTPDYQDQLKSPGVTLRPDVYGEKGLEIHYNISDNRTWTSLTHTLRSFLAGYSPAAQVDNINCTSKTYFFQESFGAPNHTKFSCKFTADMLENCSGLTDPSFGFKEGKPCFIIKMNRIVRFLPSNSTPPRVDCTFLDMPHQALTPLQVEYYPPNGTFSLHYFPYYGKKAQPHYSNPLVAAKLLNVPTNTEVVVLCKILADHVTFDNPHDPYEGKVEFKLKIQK

Usually ED50 stands for the dose that gives a 50% effect, or the effect in half of the subjects. One may read the IC50 as the concentration that inhibits the measured activity by half. In the case of `Cc1cnc(CSc2cc3ccccc3[nH]2)cc1N1CCCCC1` [Example 1, 2-[(5-methyl-4-piperidino-2-pyridyl)methylthio]indole], the ED50 in the test on gastric mucosa came to 11.5 mg/kg. For the same compound, in the test with rabbit gastric glands, the activity at 100 µM came out at 7%, the activity at 10 µM was 14% and the activity at 1 µM is 44%. Further, on H^+,K^+ -ATPase, the “H^+,K^+ -ATPase inhibition (in words)” value is “H^+,K^+ -ATPase inhibitors”. Besides, the IC50 at H^+,K^+ -ATPase (setting [1]) was 50 µM. The ED50 with gastric acid secretion worked out at 7.58 mg/kg. For the same compound, the “gastric acid antisecretory activity (in words)” value in the test on gastric acid secretion (rat, in vivo) is listed as “remarkedly milder than that of opeprazole”.
Turning to `CN(C)c1ccnc(CSc2c[nH]c3ccccc23)c1` [Example 2, 3-[(4-dimethylamino-2-pyridyl)methylthio]indole], in the test on rabbit gastric glands, the activity at 100 µM was 24%, the activity at 10 µM came out at 72% and the activity at 1 µM amounted to 111%.
Turning to `Cc1cnc(C[S+]([O-])c2cc3ccccc3[nH]2)cc1N1CCCCC1` (centres unmarked) [Example 3, 2-[(5-methyl-4-piperidino-2-pyridyl)methylsulfinyl]indole], in the test with rabbit gastric glands, the activity at 100 µM was 54%, the activity at 10 µM amounted to 64% and the activity at 1 µM is 99%.
On to `Cc1cnc(CSc2cc3ccccc3n2C)cc1N1CCCCC1` [Example 4, 1-methyl-2-[(5-methyl-4-piperidino-2-pyridyl)methylthio]indole], for which, in the test with rabbit gastric glands, the activity at 100 µM turned out to be 7%, the activity at 10 µM came out at 8% and the activity at 1 µM worked out at 50%.
Consider `Cc1ccc2[nH]c(SCc3cc(N4CCCCC4)c(C)cn3)cc2c1` [Example 5, 5-methyl-2-[(5-methyl-4-piperidino-2-pyridyl)methylthio]indole], for which, in the test with gastric mucosa, the ED50 was 8.59 mg/kg. Further, in the test on rabbit gastric glands, the activity at 100 µM is 11%, the activity at 10 µM was found to be 18% and the activity at 1 µM was 56%.
On the same counts, the results for `Cc1cnc(CSc2cc3cc(F)ccc3[nH]2)cc1N1CCCCC1` [Example 6, 5-fluoro-2-[(5-methyl-4-piperidino-2-pyridyl)methylthio]indole] are 12.7 mg/kg, 14%, 76% and 48%.
On the same counts, the results for `Cc1cnc(CSc2cc3cc(C(F)(F)F)ccc3[nH]2)cc1N1CCCCC1` [Example 7, 5-trifluoromethyl-2-[(5-methyl-4-piperidino-2-pyridyl)methylthio]indole] are 9.77 mg/kg, 14%, 17% and 55%.
As for `CCOC(=O)c1ccc2[nH]c(SCc3cc(N4CCCCC4)c(C)cn3)cc2c1` [Example 9, 5-ethoxycarbonyl-2-[(5-methyl-4-piperidino-2-pyridyl)methylthio]indole], in the test on rabbit gastric glands, the activity at 100 µM was found to be 15%, the activity at 10 µM was found to be 20% and the activity at 1 µM came to 61%.
The matching figures for `Cc1c(N2CCCCC2)ccnc1CSc1cc2ccccc2[nH]1` [Example 10, 2-[(3-methyl-4-piperidino-2-pyridyl)methylthio]indole]: 4%, 19% and 71%.
On the same counts, the results for `Cc1cnc(CSc2cc3ccccc3[nH]2)cc1N1CCOCC1` [Example 11, 2-[(5-methyl-4-morpholino-2-pyridyl)methylthio]indole] are 3%, 56% and 106%.
Consider `Cc1cnc(CSc2cc3ccccc3[nH]2)cc1N1CCCC1` [Example 12, 2-[(5-methyl-4-pyrrolidino-2-pyridyl)methylthio]indole], for which, in the test with rabbit gastric glands, the activity at 100 µM was found to be 10%, the activity at 10 µM is 11% and the activity at 1 µM amounted to 48%.
Consider `CN(C)c1ccnc(CSc2cc3ccccc3[nH]2)c1` [Example 13, 2-[(4-Dimethylamino-2-pyridyl)methylthio]indole], for which the ED50 in the test on gastric mucosa was found to be 9.17 mg/kg. Besides, in the test on rabbit gastric glands, the activity at 100 µM was determined as 3%, the activity at 10 µM was 48% and the activity at 1 µM worked out at 118%. The “H^+,K^+ -ATPase inhibition (in words)” value on H^+,K^+ -ATPase is listed as “H^+,K^+ -ATPase inhibitors”. Further, the IC50 on H^+,K^+ -ATPase (setting [1]) was determined as 700 µM.
Regarding `COc1ccc2[nH]c(SCc3cc(N4CCCCC4)c(C)cn3)cc2c1` [Example 21, 5-methoxy-2-[(5-methyl-4-piperidino-2-pyridyl)methylthio]indole], the median effective dose (ED50) in the test on gastric mucosa came to 14.6 mg/kg.
Same read-out and setting: under `c1ccc2[nH]c(SCc3cc(N4CCCCC4)ccn3)cc2c1` [Example 22, 2-[(4-piperidino-2-pyridyl)methylthio]indole] stands 8.13 mg/kg.
For the compound `Clc1ccnc(CSc2c[nH]c3ccccc23)c1` [Example 37, 3-[(4-chloro-2-pyridyl)methylthio]indole], in the test on rabbit gastric glands, the activity at 100 µM amounted to 95%, the activity at 10 µM was 105% and the activity at 1 µM is 114%.
On the same counts, the results for `CCOC(=O)c1ccnc(CSc2c[nH]c3ccccc23)c1` [Example 38, 3-[(4-ethoxycarbonyl-2-pyridyl)methylthio]indole] are 141%, 103% and 120%.
On the same counts, the results for `Oc1ccnc(CSc2c[nH]c3ccccc23)c1` [Example 39, 3-[(4-hydroxy-2-pyridyl)methylthio]indole] are 105%, 109% and 120%.
As for `Cc1cnc(CSc2c[nH]c3ccccc23)cc1N1CCCCC1` [Example 40, 3-[(5-methyl-4-piperidino-2-pyridyl)methylthio]indole], the ED50 with gastric mucosa was found to be 2.84 mg/kg.
As to `COc1ccc2nc([S+]([O-])Cc3ncc(C)c(OC)c3C)[nH]c2c1` (centres unmarked) [Omeprazole, 2-[(3,5-dimethyl-4-methoxy-2-pyridyl)methylsulfinyl]-5-methoxybenzimidazole, reference compound], in the test on gastric mucosa, the ED50 amounted to 34.1 mg/kg. Also, in the test with rabbit gastric glands, the activity at 100 µM worked out at 18%, the activity at 10 µM came to 25% and the activity at 1 µM turned out to be 34%. Moreover, the IC50 at H^+,K^+ -ATPase was 9.4 µM. Also, the 50% effective dose (ED50) in the test on gastric acid secretion is 0.24 mg/kg.
